Data from patent publication US10189839B2, “Tricyclic imidazole compounds as inhibitors of tryptophan hydroxylase” (ACTELION PHARMACEUTICALS LTD, priority 2013, dated 2019).

Target: T1, full length human TPH1 (Homo sapiens, UniProt P17752)
T1 construct: To generate the enzyme, full length human TPH1 is cloned into the plasmid pET20b(+); made in house; host or cells: E. coli
T1 sequence (P17752 1-444): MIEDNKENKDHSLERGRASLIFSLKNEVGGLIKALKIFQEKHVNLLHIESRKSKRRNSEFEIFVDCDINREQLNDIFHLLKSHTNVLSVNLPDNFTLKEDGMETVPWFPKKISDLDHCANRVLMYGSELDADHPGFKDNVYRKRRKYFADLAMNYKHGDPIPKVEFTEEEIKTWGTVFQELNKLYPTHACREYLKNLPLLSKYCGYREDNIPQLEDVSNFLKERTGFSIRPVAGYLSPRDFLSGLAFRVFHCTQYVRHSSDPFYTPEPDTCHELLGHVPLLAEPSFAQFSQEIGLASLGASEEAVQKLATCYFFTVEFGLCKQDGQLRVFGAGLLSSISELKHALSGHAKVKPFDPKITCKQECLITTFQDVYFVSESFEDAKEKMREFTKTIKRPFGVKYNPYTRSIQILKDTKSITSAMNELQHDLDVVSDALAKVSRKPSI
Assay: Biochemical in vitro assay using fluorescence readout (TPH1 enzyme activity)
Conditions: Table 1, mean where determined several times
Method in brief: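 E. coli-expressed full-length human TPH1 (40-80 nM), affinity- and size-exclusion-purified, incubated 60 min at 15° C. in 0.1M Tris-HCl pH 7.6 with 1 mM DTT, 0.2 mg/ml catalase, 100 μM 6-methyltetrahydropterine and 40 μM L-tryptophan. 5-Hydroxy-L-tryptophan read by fluorescence (ex 300/em 540 nm) after HClO4 quench; IC50 versus vehicle, mean where repeated.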

Row | Compound | IC50
1 | Cc1nc(C)c(C2c3c(nc4n3CCCC4)CCN2C(=O)COc2ccc(NS(C)(=O)=O)nc2Cl)s1 (stereo not shown) [Example 1.10.1, N-(6-chloro-5-(2-(1-(2,4-dimethylthiazol-5-yl)-3,4,6,7,8,9-hexahydroimidazo[1,2-a:5,4-c′]dipyridin-2(1H)-yl)-2-oxoethoxy)pyridin-2-yl)methanesulfonamide] | 0.012 µM
2 | Cc1nc(C)c(C2c3c(nc4n3CCCC4)CCN2C(=O)COc2ccc(C(=O)N(C)C3CC3)nc2Cl)s1 (stereo not shown) [Example 1.10.2, 6-chloro-N-cyclopropyl-5-(2-(1-(2,4-dimethylthiazol-5-yl)-3,4,6,7,8,9-hexahydroimidazo[1,2-a:5,4-c′]dipyridin-2(1H)-yl)-2-oxoethoxy)-N-methylpicolinamide] | 0.082 µM
3 | Cc1nc(C)c(C2c3c(nc4n3CCCC4)CCN2C(=O)COc2ccc(-c3ncco3)nc2Cl)s1 (stereo not shown) [Example 1.10.3, 2-((2-chloro-6-(oxazol-2-yl)pyridin-3-yl)oxy)-1-(1-(2,4-dimethylthiazol-5-yl)-3,4,6,7,8,9-hexahydroimi-dazo[1,2-a:5,4-c′]dipyridin-2(1H)-yl)ethanone] | 0.016 µM
4 | CNC(=O)c1ccc(OCC(=O)N2CCc3nc4n(c3C2c2sc(C)nc2C)CCCC4)c(Cl)n1 (stereo not shown) [Example 1.10.4, 6-chloro-5-(2-(1-(2,4-dimethylthiazol-5-yl)-3,4,6,7,8,9-hexahydroimidazo[1,2-a:5,4-c′]dipyridin-2(1H)-yl)-2-oxoethoxy)-N-methylpicolinamide] | 0.036 µM
5 | Cc1nc(C)c(C2c3c(nc4n3CCCC4)CCN2C(=O)COc2ccc(C(=O)N(C)C)nc2Cl)s1 (stereo not shown) [Example 1.10.5, 6-chloro-5-(2-(1-(2,4-dimethylthiazol-5-yl)-3,4,6,7,8,9-hexahydroimidazo[1,2-a:5,4-c′]dipyridin-2(1H)-yl)-2-oxoethoxy)-N,N-dimethylpicolinamide] | 0.085 µM
6 | Cc1nc(C)c(C2c3c(nc4n3CCCC4)CCN2C(=O)COc2ccc(C#N)nc2Cl)s1 (stereo not shown) [Example 1.10.6, 6-chloro-5-(2-(1-(2,4-dimethylthiazol-5-yl)-3,4,6,7,8,9-hexahydroimidazo[1,2-a:5,4-c′]dipyridin-2(1H)-yl)-2-oxoethoxy)picolinonitrile] | 0.077 µM
7 | Cc1nc(C)c(C2c3c(nc4n3CCCC4)CCN2C(=O)COc2ccc(C(F)(F)F)nc2Cl)s1 (stereo not shown) [Example 1.10.7, 2-((2-chloro-6-(trifluoromethyl)pyridin-3-yl)oxy)-1-(1-(2,4-dimethylthiazol-5-yl)-3,4,6,7,8,9-hexahydroimi-dazo[1,2-a:5,4-c′]dipyridin-2(1H)-yl)ethanone] | 0.177 µM
8 | Cc1nc(C)c(C2c3c(nc4n3CCCC4)CCN2C(=O)COc2ccc(C3CC3)nc2Cl)s1 (stereo not shown) [Example 1.10.8, 2-((2-chloro-6-cyclopropylpyridin-3-yl)oxy)-1-(1-(2,4-dimethylthiazol-5-yl)-3,4,6,7,8,9-hexahydroimi-dazo[1,2-a:5,4-c′]dipyridin-2(1H)-yl)ethanone] | 0.033 µM
9 | Cc1nc(C)c(C2c3c(nc4n3CCCC4)CCN2C(=O)COc2ccc(N3CCN(C)CC3)nc2Cl)s1 (stereo not shown) [Example 1.10.9, 2-((2-chloro-6-(4-methylpiperazin-1-yl)pyridin-3-yl)oxy)-1-(1-(2,4-dimethylthiazol-5-yl)-3,4,6,7,8,9-hexahydroimidazo[1,2-a:5,4-c′]dipyridin-2(1H)-yl)ethanone] | 0.017 µM
10 | Cc1nc(C)c(C2c3c(nc4n3CCCC4)CCN2C(=O)COc2ccc(C#N)cc2Cl)s1 (stereo not shown) [Example 1.10.10, 3-chloro-4-(2-(1-(2,4-dimethylthiazol-5-yl)-3,4,6,7,8,9-hexahydroimidazo[1,2-a:5,4-c′]dipyridin-2(1H)-yl)-2-oxoethoxy)benzonitrile] | 0.207 µM
11 | Cc1nc(C)c(C2c3c(nc4n3CCCC4)CCN2C(=O)COc2ccc(C(F)(F)F)cc2Cl)s1 (stereo not shown) [Example 1.10.11, 2-(2-chloro-4-(trifluoromethyl)phenoxy)-1-(1-(2,4-dimethylthiazol-5-yl)-3,4,6,7,8,9-hexahydroimi-dazo[1,2-a:5,4-c′]dipyridin-2(1H)-yl)ethanone] | 0.132 µM
12 | Cc1nc(C)c(C2c3c(nc4n3CCCC4)CCN2C(=O)COc2ccc(N(C)S(C)(=O)=O)nc2Cl)s1 (stereo not shown) [Example 1.10.12, N-(6-chloro-5-(2-(1-(2,4-dimethylthiazol-5-yl)-3,4,6,7,8,9-hexahydroimidazo[1,2-a:5,4-c′]dipyridin-2(1H)-yl)-2-oxoethoxy)pyridin-2-yl)-N-methylmethanesulfonamide] | 0.02 µM
13 | CCc1nc(NS(C)(=O)=O)ccc1OCC(=O)N1CCc2nc3n(c2C1c1sc(C)nc1C)CCCC3 (stereo not shown) [Example 1.10.13, N-(5-(2-(1-(2,4-dimethylthiazol-5-yl)-3,4,6,7,8,9-hexahydroimidazo[1,2-a:5,4-c′]dipyridin-2(1H)-yl)-2-oxoethoxy)-6-ethylpyridin-2-yl)methanesulfonamide] | 0.008 µM
14 | Cc1nc(C)c(C2c3c(nc4n3CCCC4)CCN2C(=O)COc2ccc(N3CCCS3(=O)=O)nc2Cl)s1 (stereo not shown) [Example 1.10.14, 2-((2-chloro-6-(1,1-dioxidoisothiazolidin-2-yl)pyridin-3-yl)oxy)-1-(1-(2,4-dimethylthiazol-5-yl)-3,4,6,7,8,9-hexahydroimidazo[1,2-a:5,4-c′]dipyridin-2(1H)-yl)ethanone] | 0.014 µM
15 | CCc1nc(C(=O)NC2CC2)ccc1OCC(=O)N1CCc2nc3n(c2C1c1sc(C)nc1C)CCCC3 (stereo not shown) [Example 1.10.15, N-cyclopropyl-5-(2-(1-(2,4-dimethylthiazol-5-yl)-3,4,6,7,8,9-hexahydroimidazo[1,2-a:5,4-c′]dipyridin-2(1H)-yl)-2-oxoethoxy)-6-ethylpicolinamide] | 0.008 µM
16 | CCc1nc(NS(C)(=O)=O)ccc1OCC(=O)N1CCc2nc3n(c2[C@@H]1c1sc(C)nc1C)CCCC3 [Example 1.10.16, (R)-N-(5-(2-(1-(2,4-dimethylthiazol-5-yl)-3,4,6,7,8,9-hexahydroimidazo[1,2-a:5,4-c′]dipyridin-2(1H)-yl)-2-oxoethoxy)-6-ethylpyridin-2-yl)methanesulfonamide] | 0.006 µM
17 | CCc1nc(C(=O)NC2CC2)ccc1OCC(=O)N1CCc2nc3n(c2[C@@H]1c1sc(C)nc1C)CCCC3 [Example 1.10.17, (R)-N-cyclopropyl-5-(2-(1-(2,4-dimethylthiazol-5-yl)-3,4,6,7,8,9-hexahydroimidazo[1,2-a:5,4-c′]dipyridin-2(1H)-yl)-2-oxoethoxy)-6-ethylpicolinamide] | 0.005 µM
18 | CCc1nc(NS(C)(=O)=O)ncc1OCC(=O)N1CCc2nc3n(c2C1c1sc(C)nc1C)CCCC3 (stereo not shown) [Example 1.10.18, N-(5-(2-(1-(2,4-dimethylthiazol-5-yl)-3,4,6,7,8,9-hexahydroimidazo[1,2-a:5,4-c′]dipyridin-2(1H)-yl)-2-oxoethoxy)-4-ethylpyrimidin-2-yl)methanesulfonamide] | 0.121 µM
19 | CCc1nc(N2CCCS2(=O)=O)ccc1OCC(=O)N1CCc2nc3n(c2C1c1sc(C)nc1C)CCCC3 (stereo not shown) [Example 1.10.19, 1-(1-(2,4-dimethylthiazol-5-yl)-3,4,6,7,8,9-hexahydroimidazo[1,2-a:5,4-c′]dipyridin-2(1H)-yl)-2-((6-(1,1-dioxidoisothiazolidin-2-yl)-2-ethylpyridin-3-yl)oxy)ethan-1-one] | 0.011 µM
